This is an account of results in patent US11760744B2, “Fused ring compounds” (Genentech, Inc., priority 2018, dated 2023).

Broadly, the IC50 is the concentration that gives 50% inhibition. One may read the EC50 as the midpoint of the concentration-response curve. The low end stands for higher potency in that assay, the high end for lower potency in that assay. As usually defined, the half-life is the time needed for the level to fall by half in the phase considered.

For series [1], the target named is T1, K-Ras G12C mutant protein (Homo sapiens, UniProt P01116, G12C).
T1 construct: K-Ras G12C (residues 2-188) and SOS1 (residues 564-1049) had N-terminal 6-His; made in house; host or cells: E. coli
The series is described as follows: K-Ras G12C HTRF assay. It counts as biochemical. As to conditions: Table 1; unit or assay not given; several values in one cell. As to the method:
In the above definition of R^2, the electrophilic moiety that is capable of forming a covalent bond with a cysteine residue is determined via K-Ras G12C-alkylation studies and Homogeneous Time Resolved Fluorescence (HTRF) assays. The G12C mutation of the K-Ras gene is a change in amino acid from glycine to cysteine at the 12th amino acid. The compounds according to the present disclosure were discovered using the HTRF assay and the K-Ras G12C-alkylation assay, as further detailed elsewhere herein below, and then NMR spectroscopy was later used to validate the specificity with which the molecule was attaching to G12C.
(Time-resolved FRET reads energy transfer from a long-lived donor to a nearby acceptor.)

Series [2] deals with T2, K-Ras G12C (Homo sapiens, UniProt P01116, G12C). The series is described as follows: Western blot assay for in cell alkylation of K-Ras G12C (HCC1171 cells). On the set-up: endogenous in cells; host or cells: HCC1171. It counts as cell-based. The following applies: 18 hours at 37° C., 7 point dose response. The procedure, abridged: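 HCC1171 cells exposed to compounds for 18 h at 37° C, lysed, and analysed by SDS-PAGE/western blot with anti-K-Ras antibody and fluorescent secondary. Alkylated K-Ras separated by band shift; % alkylation = FI(alkylated)/(FI(alkylated)+FI(unalkylated))×100, IC50 from 7-point dose response.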
For orientation: A western blot detects proteins with antibodies after separation by electrophoresis.
Target sequence in this assay (P01116 1-188 isoform P01116-2 G12C): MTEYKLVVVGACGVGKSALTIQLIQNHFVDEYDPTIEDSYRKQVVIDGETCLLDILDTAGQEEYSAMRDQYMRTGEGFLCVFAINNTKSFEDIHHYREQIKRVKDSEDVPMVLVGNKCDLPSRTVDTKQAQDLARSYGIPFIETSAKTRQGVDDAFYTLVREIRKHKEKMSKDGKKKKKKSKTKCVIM

The target of series [3] is T2, K-Ras G12C. Put plainly: K-Ras G12C, SOS1, Raf RBD HTRF assay for inhibition of GTP exchange. The format is biochemical. As to conditions: 18 hours preincubation with K-Ras G12C at room temperature; SOS1-mediated GTP exchange. On the set-up: K-Ras G12C (residues 2-188) and SOS1 (residues 564-1049) had N-terminal 6-His; made in house; host or cells: E. coli. The procedure, abridged:
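After 18 h at room temperature with compound, SOS1 (1.25 nM final) started exchange to GTP (150 μM final). C-Raf RBD, Tb-anti-FLAG and D2-anti-his (50, 1 and 12.5 nM) were then added. The 665/615 nm HTRF ratio was read after 2 h; buffer was HEPES/NaCl, 1 mM MgCl2, BSA, Tween-20 and DTT.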
Target sequence in this assay (P01116 2-188 isoform P01116-2 G12C): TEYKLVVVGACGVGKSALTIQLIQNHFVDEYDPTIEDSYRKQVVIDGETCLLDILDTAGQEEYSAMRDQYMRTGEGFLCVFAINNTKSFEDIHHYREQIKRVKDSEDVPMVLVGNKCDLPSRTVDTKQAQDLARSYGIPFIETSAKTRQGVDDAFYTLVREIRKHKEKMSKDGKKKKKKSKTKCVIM

The nature of series [4]: Whole blood stability assay. The format is in vitro ADME. As to conditions: fresh whole blood, drug 1 μM, 37° C., 180 minutes incubation. As for the experimental part:
Whole Blood Stability Assay A whole blood stability assay was performed using fresh blood with a drug final concentration of 1 μM. The drug-blood mixtures were incubated at 37° C. for 180 minutes.

Some results are limits rather than exact numbers.

T1 sequence (P01116 2-188 isoform P01116-2 G12C): as above

Regarding `C=CC(=O)N1CCN(c2ncnc3c2CCC(c2c(C)ccc4[nH]ncc24)C3)CC1` (racemic) [Example 2, 1-(4-(7-(5-methyl-1H-indazol-4-yl)-5,6,7,8-tetrahydroquinazolin-4-yl)piperazin-1-yl)prop-2-en-1-one], the IC50 (in series [1]; on K-Ras G12C [3]) was 840 nM throughout. Also, on K-Ras G12C [2], the EC50 was 6100 nM.
As for `C=CC(=O)N1CCN(c2nc(OC[C@@H]3CCCN3C)nc3c2C[C@@H](C)[C@H](c2c(F)c(N)cc(C)c2C(F)(F)F)C3)[C@@H](C)C1` (single isomer, unassigned) [Example 12b], the half-life at 1 μM in series [4] was over 9 h. The compound also had an EC50 at K-Ras G12C [2] of 3.3 nM. The compound further had an IC50 against K-Ras G12C [3] of under 10 nM.
With `C=CC(=O)N1CCN(c2nc(OC[C@@H]3CCCN3C)nc3c2C[C@@H](C)[C@H](c2nc(N)cc(C)c2C(F)(F)F)C3)CC1` (single isomer, unassigned) [Example 20a], in series [4], the half-life at 1 μM was 3.83 h. The same compound yielded an EC50 at K-Ras G12C [2] of 14 nM. This compound also returned an IC50 against K-Ras G12C [3] of under 10 nM.
The matching figures for `C=CC(=O)N1CCN(c2nc(OC[C@@H]3CCCN3C)nc3c2C[C@@H](C)[C@H](c2nc(N)cc(C)c2C(F)(F)F)C3)[C@@H](C)C1` (single isomer, unassigned) [Example 21b]: over 9 h, 6 nM and under 10 nM.
On the same counts, the results for `C=CC(=O)N1CCN(c2nc(OC[C@@H]3CCCN3C)nc3c2C[C@@H](C)[C@H](c2cc(O)cc4ccccc24)C3)[C@@H](C)C1` (single isomer, unassigned) [Example 22b] are over 9 h, 6.1 nM and under 10 nM.
Consider `C=CC(=O)N1CCN(c2nc(OC[C@@H]3CCCN3C)nc3c2C[C@@H](C)[C@H](c2c(C(F)(F)F)ccc(N)c2F)C3)[C@@H](C)C1` (single isomer, unassigned) [Example 23b], for which the half-life at 1 μM in series [4] is 4.67 h. The compound also displayed an EC50 on K-Ras G12C [2] of 6.6 nM. The compound further registered an IC50 against K-Ras G12C [3] of under 10 nM.
On the same counts, the results for `C=CC(=O)N1CCN(c2nc(OC[C@@H]3CCCN3C)nc3c2CC[C@H](c2cc(O)cc4ccccc24)C3)[C@@H](C)C1` (single isomer, unassigned) [Example 28b] are 7 h, 23 nM and under 10 nM.
In the case of `C=CC(=O)N1CCN(c2nc(OC[C@@H]3C[C@@H](F)CN3C)nc3c2CC[C@H](c2cc(O)cc4ccccc24)C3)[C@@H](C)C1` (single isomer, unassigned) [Example 31a], the half-life at 1 μM in series [4] was determined as 6.83 h. The EC50 on K-Ras G12C [2] is 13 nM. The IC50 against K-Ras G12C [3] was under 10 nM.
Compound `C=C(F)C(=O)N1CCN(c2nc(OC[C@@H]3CCCN3C)nc3c2C[C@@H](C)[C@H](c2c(F)c(N)cc(C)c2C(F)(F)F)C3)C[C@@H]1CC#N` (single isomer, unassigned) [Example 34c] yielded a half-life at 1 μM in series [4] of over 9 h. The same compound yielded an EC50 at K-Ras G12C [2] of 14 nM. The same compound had an IC50 against K-Ras G12C [3] of under 10 nM.
On the same counts, the results for `C=C(F)C(=O)N1CCN(c2nc(OC[C@@H]3CCCN3C)nc3c2CC(C)C(c2c(F)c(N)cc(C)c2C(F)(F)F)C3)CC1CC#N` (single isomer, unassigned) [Example 34d] are over 9 h, 6.7 nM and under 10 nM.
The matching figures for `C=CC(=O)N1CCN(c2nc(OC[C@@H]3CCCN3C)nc3c2C[C@@H](C)[C@H](c2cccc4c2CCC4)C3)C[C@H]1CC#N` (single isomer, unassigned) [Example 35b]: 1.52 h, 17 nM and 11 nM.
In the case of `CN(C)C/C=C/C(=O)Nc1cc2c(Nc3ccc(F)c(Cl)c3)ncnc2cc1O[C@H]1CCOC1` [Afatinib, reference compound], in series [4], the half-life at 1 μM turned out to be 1.25 h.
In the case of `C=CC(=O)N1CCN(c2ncnc3c2CC(C(C)C)C(c2cc(O)cc4ccccc24)C3)CC1` (stereo not drawn) [Example 16, 1-(4-(7-(3-hydroxynaphthalen-1-yl)-6-isopropyl-5,6,7,8-tetrahydroquinazolin-4-yl)piperazin-1-yl)prop-2-en-1-one], the IC50 (in series [1]; against K-Ras G12C [3]) was 120 nM in each case. The EC50 at K-Ras G12C [2] was found to be 1200 nM.
For the compound `C=CC(=O)N1CCN(c2ncnc3c2CCC(c2c(C)ccc4cn[nH]c24)C3)CC1` (stereo not drawn) [Example 17, 1-[4-[7-(6-methyl-1H-indazol-7-yl)-5,6,7,8-tetrahydroquinazolin-4-yl]piperazin-1-yl]prop-2-en-1-one], the IC50 (in series [1]; against K-Ras G12C [3]) was 700 nM throughout. The same compound returned an EC50 at K-Ras G12C [2] of 6700 nM.
Consider `C=CC(=O)N1CCN(c2ncnc3c2CC(C)C(c2cc(O)cc4ccccc24)C3)CC1` (stereo not drawn) [Example 39, 1-(4-(7-(3-hydroxynaphthalen-1-yl)-6-methyl-5,6,7,8-tetrahydroquinazolin-4-yl)piperazin-1-yl)prop-2-en-1-one], for which the IC50 (in series [1]; at K-Ras G12C [3]) was 180 nM each time. Also, the EC50 at K-Ras G12C [2] is 720 nM.
Consider `C=CC(=O)N1CCN(c2ncnc3c2CCC(c2cc(O)cc4ccccc24)C3)CC1` (stereo not drawn) [Example 43, 1-[4-[7-(3-hydroxy-1-naphthyl)-5,6,7,8-tetrahydroquinazolin-4-yl]piperazin-1-yl]prop-2-en-1-one], for which the 50% inhibitory concentration (IC50) (in series [1]; on K-Ras G12C [3]) was 200 nM throughout.
As for `C=CC(=O)N1CC2(CCN(c3nc(OCC4CCCN4C)nc4c3CCC(c3cc(O)cc5ccccc35)C4)CC2)C1` (stereo not drawn) [Example 51, 1-[7-[7-(3-hydroxy-1-naphthyl)-2-[(1-methylpyrrolidin-2-yl)methoxy]-5,6,7,8-tetrahydroquinazolin-4-yl]-2,7-diazaspiro[3.5]nonan-2-yl]prop-2-en-1-one], the IC50 (in series [1]; on K-Ras G12C [3]) was 46 nM each time. The compound also yielded an EC50 on K-Ras G12C [2] of 330 nM.
Turning to `C=CC(=O)N1CCN(c2nc(OCCC3CCCN3C)nc3c2CCC(c2cc(O)cc4ccccc24)C3)CC1` (stereo not drawn) [Example 52, 1-(4-(7-(3-hydroxynaphthalen-1-yl)-2-(2-(1-methylpyrrolidin-2-yl)ethoxy)-5,6,7,8-tetrahydroquinazolin-4-yl)piperazin-1-yl)prop-2-en-1-one], in series [1], the IC50 is 51 nM.
Still for that read-out and setting: next, `C=CC(=O)N1CCN(c2nc(OCCCN3CCOCC3)nc3c2CCC(c2cc(O)cc4ccccc24)C3)C(C)C1` (stereo not drawn) [Example 53, 1-(4-(7-(3-hydroxynaphthalen-1-yl)-2-(3-morpholinopropoxy)-5,6,7,8-tetrahydroquinazolin-4-yl)-3-methylpiperazin-1-yl)prop-2-en-1-one]: 22 nM.
Compound `C=CC(=O)N1CCN(c2nc(OCc3cn(C)cn3)nc3c2CCC(c2cc(O)cc4ccccc24)C3)C(C)C1` (stereo not drawn) [Example 54, 1-(4-(7-(3-hydroxynaphthalen-1-yl)-2-((1-methyl-1H-imidazol-4-yl)methoxy)-5,6,7,8-tetrahydroquinazolin-4-yl)-3-methylpiperazin-1-yl)prop-2-en-1-one] displayed an IC50 in series [1] of 470 nM.
`C=CC(=O)N1CCN(c2nc(OCC3CCC(=O)N3)nc3c2CCC(c2cc(O)cc4ccccc24)C3)C(C)C1` (stereo not drawn) [Example 55, 5-(((4-(4-acryloyl-2-methylpiperazin-1-yl)-7-(3-hydroxynaphthalen-1-yl)-5,6,7,8-tetrahydroquinazolin-2-yl)oxy)methyl)pyrrolidin-2-one] registered an IC50 in series [1] of 1400 nM. Compared with the last compound, the IC50 is about 3-fold higher.
Still for that read-out and setting: the figure for `C=CC(=O)N1CC(C)N(c2nc(OCC3CCCN3C)nc3c2CCC(c2cc(O)cc4ccccc24)C3)C(C)C1` (stereo not drawn) [Example 56, 1-(4-(7-(3-hydroxynaphthalen-1-yl)-2-((1-methylpyrrolidin-2-yl)methoxy)-5,6,7,8-tetrahydroquinazolin-4-yl)-3,5-dimethylpiperazin-1-yl)prop-2-en-1-one] is 73 nM.
`C=CC(=O)Oc1cc(C2CCc3c(nc(OCC4CCCN4C)nc3N3CCN(C(=O)C=C)C(CC#N)C3)C2)c2ccccc2c1` (stereo not drawn) [Example 59, 4-(4-(4-acryloyl-3-(cyanomethyl)piperazin-1-yl)-2-((1-methylpyrrolidin-2-yl)methoxy)-5,6,7,8-tetrahydroquinazolin-7-yl)naphthalen-2-yl acrylate] showed an IC50 in series [1] of 250 nM.
Take `C=CC(=O)N1CCN(c2nc(OCC3CCCN3C)nc3c2CCC(c2cc(O)cc4ccccc24)C3)C(CC#N)C1` (stereo not drawn) [Example 60, 2-(4-acryloyl-1-(7-(3-hydroxynaphthalen-1-yl)-2-((1-methylpyrrolidin-2-yl)methoxy)-5,6,7,8-tetrahydroquinazolin-4-yl)piperazin-2-yl)acetonitrile]: the IC50 (in series [1]; against K-Ras G12C [3]) was 26 nM throughout. This compound also returned an EC50 at K-Ras G12C [2] of 1300 nM.
